Measured values: the supplement of paper PMC13380429
Where a name gives a salt, the structure may show the parent alone.

Experiments:
Conditions in all cases: 72 h
[1] = tested on: U2OS; assay: relative viability EC50 (midpoint between 100% and the lowest measured viability); higher = less toxic
[2] = tested on: Vero E6; assay: as above
[3] = tested on: Caco-2; assay: as above
[4] = tested on: Calu-3; assay: as above
[5] = tested on: U2OS; assay: cell viability relative to DMSO; higher = less toxic
[6] = tested on: Vero E6; assay: as above
[7] = tested on: Caco-2; assay: as above
[8] = tested on: Calu-3; assay: as above
[9] = tested on: U2OS; assay: drug sensitivity score (DSS) for viability; higher = more toxic; extreme values may be limits of the assay
[10] = tested on: Vero E6; assay: as above
[11] = tested on: Caco-2; assay: as above
[12] = tested on: Calu-3; assay: as above
[13] = tested on: HepG2; assay: as above
[14] = tested on: HepG2; assay: cell viability relative to DMSO; higher = less toxic

| SMILES | relative viability EC50 [1] [µM] | relative viability EC50 [2] [µM] | relative viability EC50 [3] [µM] | relative viability EC50 [4] [µM] | cell viability ([5]; 1 nM) [%] | cell viability ([5]; 10 nM) [%] | cell viability ([5]; 100 nM) [%] | cell viability ([5]; 1000 nM) [%] | cell viability ([5]; 10000 nM) [%] | cell viability ([6]; 1 nM) [%] | cell viability ([6]; 10 nM) [%] | cell viability ([6]; 100 nM) [%] | cell viability ([6]; 1000 nM) [%] | cell viability ([6]; 10000 nM) [%] | cell viability ([7]; 1 nM) [%] | cell viability ([7]; 10 nM) [%] | cell viability ([7]; 100 nM) [%] | cell viability ([7]; 1000 nM) [%] | cell viability ([7]; 10000 nM) [%] | cell viability ([8]; 1 nM) [%] | cell viability ([8]; 10 nM) [%] | cell viability ([8]; 100 nM) [%] | cell viability ([8]; 1000 nM) [%] | cell viability ([8]; 10000 nM) [%] | drug sensitivity score [9] | drug sensitivity score [10] | drug sensitivity score [11] | drug sensitivity score [12] | drug sensitivity score [13] | cell viability ([14]; 1 nM) [%] | cell viability ([14]; 10 nM) [%] | cell viability ([14]; 100 nM) [%] | cell viability ([14]; 1000 nM) [%] | cell viability ([14]; 10000 nM) [%] |
| --- | --- | --- | --- | --- | --- | --- | --- | --- | --- | --- | --- | --- | --- | --- | --- | --- | --- | --- | --- | --- | --- | --- | --- | --- | --- | --- | --- | --- | --- | --- | --- | --- | --- | --- |
| NC(=S)N/N=C/c1ccncc1 [perchlozone] | > 10 | > 10 | > 10 | > 10 | 102 | 98.4 | 101 | 104 | 106 | 93.9 | 98.9 | 93.7 | 99.2 | 108 | 97.2 | 100 | 91.1 | 106 | 92.6 | 104 | 100 | 105 | 95.6 | 100 | 0 | 0 | 0 | 0 | – | – | – | – | – | – |
| CCCCCCOc1cc2c(cc1N(C)c1ncc(C(=O)O)cn1)C(C)(C)CCC2(C)C [PA-452] | > 10 | – | – | – | 97.7 | 92.8 | 97 | 101 | 103 | – | – | – | – | – | – | – | – | – | – | – | – | – | – | – | 0 | – | – | – | – | – | – | – | – | – |
| CCN1CCN(C(=O)N[C@@H](C(=O)N[C@@H]2C(=O)N3C(C(=O)O)=C(CSc4nnnn4C)CS[C@H]23)c2ccc(O)cc2)C(=O)C1=O [cefoperazone] | – | > 10 | > 10 | > 10 | – | – | – | – | – | 96.7 | 104 | 99.5 | 106 | 98.4 | 98.5 | 107 | 102 | 100 | 99.6 | 89.8 | 101 | 97 | 97.1 | 102 | – | 0 | 0 | 0 | – | – | – | – | – | – |
| CC(=O)O[C@H]1CC[C@@]2(C)C(=CC[C@@H]3[C@@H]2CC[C@]2(C)C(=O)CC[C@@H]32)C1 [prasterone-acetate] | – | – | – | – | – | – | – | – | – | – | – | – | – | – | – | – | – | – | – | – | – | – | – | – | 0 | 0 | – | 0 | 0 | – | – | – | – | – |
| O=C1NC(=O)c2c1c1c3ccccc3n3c1c1c2c2ccccc2n1C1CCC3O1 | > 10 | – | > 10 | > 10 | 99.8 | 99.3 | 91.1 | 86.8 | 80 | 98.5 | 94.7 | 95 | 71.7 | 75 | 101 | 96.2 | 92.9 | 76.9 | 80.7 | 104 | 92.6 | 96.4 | 92 | 95.9 | 1.9 | 5.5 | 4 | 0 | 7.8 | 100 | 99.9 | 98.8 | 57.8 | 56.5 |
| COc1ccc(C(C)=O)c(O)c1 [paeonol] | > 10 | > 10 | > 10 | > 10 | 95 | 96.8 | 95.8 | 95.8 | 97.7 | 95.4 | 98.7 | 96.9 | 94.1 | 106 | 96.6 | 96 | 103 | 96.5 | 110 | 95.6 | 95.9 | 91.2 | 99.8 | 105 | 0 | 0 | 0 | 0 | – | – | – | – | – | – |
| CC(C)NC[C@@H](C(=O)N1CCN(c2ncnc3c2[C@H](C)C[C@H]3O)CC1)c1ccc(Cl)cc1 [GDC-0068] | > 10 | > 10 | – | – | 105 | 100 | 101 | 96.8 | 87.2 | 105 | 102 | 100 | 101 | 93.2 | 107 | 107 | 96 | 83.2 | 69.1 | 101 | 108 | 89.9 | 80.8 | 56.7 | 0.3 | 0 | 3 | 4.3 | 1.3 | 109 | 115 | 108 | 98.9 | 71.4 |
| COc1cc(/C=C/C(=O)O)ccc1O [ferulic-acid] | > 10 | > 10 | > 10 | > 10 | 97.8 | 102 | 99.9 | 99.3 | 101 | 94 | 107 | 94.5 | 96.2 | 107 | 99 | 97.8 | 96.4 | 92.2 | 103 | 93.8 | 98.6 | 103 | 95.6 | 94.2 | 0 | 0 | 0 | 0 | – | – | – | – | – | – |
| Oc1ccc(OC2CCCCO2)cc1 (stereo not given) [deoxyarbutin] | – | – | > 10 | > 10 | – | – | – | – | – | – | – | – | – | – | 89.2 | 99.1 | 99.1 | 97.3 | 104 | 98.1 | 98.2 | 97.4 | 110 | 92.9 | – | – | 0 | 0 | – | – | – | – | – | – |
| C=C1C[C@@]2(O)O[C@@]3(C[C@H]2C(C)C)[C@@H](C)CC[C@@H]13 [curcumol] | – | > 10 | > 10 | > 10 | – | – | – | – | – | 100 | 101 | 97.1 | 91.9 | 102 | 108 | 95.3 | 93.6 | 97.3 | 103 | 96.4 | 107 | 111 | 101 | 106 | – | 0 | 0 | 0 | – | – | – | – | – | – |
| CN1[C@@H]2C[C@@H](OC(=O)[C@H](CO)c3ccccc3)C[C@H]1[C@@H]1O[C@@H]12 [SCOPOLAMINE HYDROBROMIDE] | > 10 | > 10 | – | > 10 | 98 | 98.7 | 99.3 | 95.9 | 96.4 | 94.2 | 99 | 94.4 | 97.2 | 115 | – | – | – | – | – | 96.6 | 99.1 | 91.6 | 101 | 105 | 0 | 0 | – | 0 | – | – | – | – | – | – |
| CN1CCN(CCCN2c3ccccc3Sc3ccc(C(F)(F)F)cc32)CC1 [trifluoperazine] | > 10 | > 10 | > 10 | – | 97.4 | 100 | 101 | 98 | 85.5 | 95.5 | 103 | 105 | 88.7 | 76.2 | 92 | 86.1 | 84.3 | 82.6 | 83 | 103 | 99.3 | 102 | 101 | 72.2 | 0.4 | 2.2 | 4.6 | 1 | 3.5 | 106 | 89.7 | 98 | 92 | 56.6 |
| CCC(C)(C)c1ccc(CC(C)CN2C[C@@H](C)O[C@@H](C)C2)cc1 (stereo not given in full) [amorolfine] | – | – | > 10 | > 10 | – | – | – | – | – | – | – | – | – | – | 86 | 114 | 91.8 | 84.8 | 76 | 93.8 | 109 | 92.9 | 100 | 94.7 | – | – | 2.5 | 0 | – | – | – | – | – | – |
| O=C(/C=C/c1ccc(O)c(O)c1)O[C@@H]1C[C@](O)(C(=O)O)C[C@@H](O)[C@H]1O [chlorogenic-acid] | – | – | – | – | – | – | – | – | – | – | – | – | – | – | – | – | – | – | – | – | – | – | – | – | 0 | 0 | – | 0 | 0 | – | – | – | – | – |
| O=C1c2ccccc2-c2n[nH]c3cccc1c23 [pyrazolanthrone] | – | > 10 | > 10 | > 10 | – | – | – | – | – | 94.7 | 102 | 99.8 | 106 | 105 | 111 | 92.3 | 99.4 | 102 | 97.9 | 94.9 | 95.7 | 92.4 | 100 | 98.6 | – | 0 | 0 | 0 | 3.3 | 101 | 80.2 | 96.8 | 82.4 | 71.5 |
